The numbers were not newly measured in US8003670B2, “Aminoalkoxy aryl sulfonamide compounds and their use as 5-HT6 ligands” (Suven Life Sciences Limited, priority 2007, dated 2011), which cites them from elsewhere.

In the data set the test system is animal models for schizophrenia. The conditions noted are these: literature (Pouzet et al. 2002); cited from earlier work.

With `COc1ccc(NS(=O)(=O)c2sc3ccc(Cl)cc3c2C)cc1N1CCNCC1` [SB-271046, 5-Chloro-N-(4-methoxy-3-piperazin-1-ylphenyl)-3-methyl-2-benzothiophenesulfonamide], the “Activity in animal tests related to positive or negative symptoms of schizophrenia” value was “inactive”.
